Measurements from patent publication US20230139944A1, “TARGETING ALPHA3BETA1 INTEGRIN FOR TREATMENT OF CANCER AND OTHER DISEASES” (Board of Regents, The University of Texas System, priority 2019, published 2023).

Experiments:
[1] = tested on: activation of FAK, AKT, and ERK in KPPC; Col1^pdxKO cancer cells; test: Col1 homotrimer-induced pro-survival signaling examined by Western blotting; type: cell-based, mouse; conditions: VS-4718 1 μM, 16 hours, col1 homotrimers 50 μg/mL
Protocol: FIGS. 1A-1D. Type I collagen homotrimers induce pro-survival signaling through α3β1 integrin. KPPC; Col1^pdxKO cancer cells were transfected with siRNAs of DDR1 (A,B), integrin β1 (C), or integrin α3 (D). Cells were then incubated with DMEM medium with 1% FBS for 6 hours before the treatment with col1 homotrimers or heterotrimers (50 μg/mL) for 16 hours. Cells were harvested, lysed, and examined for indicated proteins by Western blotting.
(§1) FIGS. 2A-2H. Type I collagen homotrimers induce persistent proliferation signals via integrins. (A,B) KPPC; Col1^pdxKO cancer cells were transfected with siRNAs of integrins β1 (A), α1, α2, or α3 (B). Cells were then incubated with DMEM medium with 1% FBS for 6 hours before the treatment with col1 homotrimers or heterotrimers (50 μg/mL) for 16 hours. Cells were harvested, lysed, and examined by Western blotting. (C) Expression levels of selected integrin subunits in KPPC; Col1^pdxKO cancer cells. (D) Expression levels of selected integrin subunits human PDAC cell lines (Panc1, BxPC3, MiaPaca2, PSN1, HPAC, CAPAN1) based on RNA-seq data from the Broad Institute Cancer Cell Line Encyclopedia (CCLE) database. RMA (Robust Multi-array Average algorithm) normalization was used and data are the log 2 gene expression signal. […] Percent area of ADM and PanIN lesions was quantified. * P<0.05. […]

[2] = tested on: FAK and PYK2; test: Col1 homotrimer-induced signaling with FAK inhibitor, Western blotting; type: cell-based, mouse; conditions: VS-4718 1 μM, 16 hours, KPPC; Col1^pdxKO cancer cells, col1 homotrimers 50 μg/mL
[3] = tested on: KPPC mice (ADM and PanIN lesions); test: FAK inhibitor (FAKi) treatment in vivo, H&E-stained pancreas sections; parameters: species or system mouse; conditions: oral gavage 50 mg/kg twice per day for 7 days
Protocol: as §1, with “signal. (E) Expression profile of integrin α3 (Itga3) among various cell clusters from KPPC tumors, as shown in t-SNE plot using the single cell RNA sequencing analysis. (F) Representative images of integrin α3 IHC staining on KPPC tumor sections. Scale bar: 100 μm. (G) KPPC; Col1^pdxKO cancer cells growing in 6-well plates were cultured with regular medium (DMEM with 10% FBS) to reach 60% confluence.” for “signal.”

CNC(=O)c1ccccc1Nc1cc(Nc2ccc(N3CCOCC3)cc2OC)ncc1C(F)(F)F [VS-4718]
col1 homotrimer induced activation of FAK, AKT, and ERK [1]: abrogated
inhibition of FAK and PYK2 [2]: inhibited FAK and PYK2
early PanIN progression (percent area of ADM and PanIN lesions) [3]: inhibited early PanIN progression
